This note sets out measurements from patent US11154566B2, “Composition for preventing hair loss or promoting hair growth” (CK BIOTECH, priority 2017, dated 2021).

Values after ≈ are worked out from the molar mass of the structure shown.

The data set can be described thus: Solubility of indirubin derivative in oils and surfactants (LC/MS/MS). Conditions: thermodynamic from solid, 72 hours at 37° C. The data set is classed as physicochemical. The method, then: To determine emulsion solution, solubility of indirubin derivative, embodiment 2 is measured in the several oil and surfactants. After enough amount of indirubin derivative powder made from manufacturing example 2 is putted into each oil or surfactants (1 ml), it was into vortexing 30 min. The equilibrium state was reached by shaking for 72 hours at 37° C. with 50 rpm speed in an incubator, then centrifuged at 16,100×g for 5 min. The supernatant was diluted with methanol and analyzed by LC/MS/MS. The kind of above oil or surfactants and measured solubility are shown below table 1.
‘Waters xevo TQ MS-ACQUITY UPLC System’ is used as an analyses equipment. ACQUITY UPLC® BEH (C18, 1.7 μm, 2.1×50 mm) column was used for analyses at room temperature. Mobile phase is used after filtration of deionized distilled water including 0.1% formic acid and acetonitrile including 0.1% formic acid (30:70, v/v) with […] membrane filter. The flow rate is 0.25 ml/min and it is analyzed by injection of 0.5 μl sample. There are LC/MS/MS conditions for Decursin analysis; Cone 38 V, Collison 32 V. Precursor ion and daughter ion are monitored 329 and 229 m/z, respectively.

Take `CO/N=C1/C(=C2/C(=O)Nc3cc(Cl)c(Cl)cc32)Nc2ccccc21` [Embodiment A3051, 5,6-dichloroindirubin-3′-methoxime]: the solubility (commonly the dissolved amount per volume that the medium holds) at 72 h reads like this: (aqueous with cosolvent or surfactant or cyclodextrin, in Kolliphor EL) 5400 µg/mL (≈ 15 mM); (aqueous with cosolvent or surfactant or cyclodextrin, in Tween 20) 4580 µg/mL (≈ 12.7 mM); (aqueous with cosolvent or surfactant or cyclodextrin, in Tween 80) 4920 µg/mL (≈ 13.7 mM); (oil or lipid, in Olive oil) 830 µg/mL (≈ 2.3 mM); (oil or lipid, in Sunflower oil) 1350 µg/mL (≈ 3.75 mM); (organic solvent or mixture, in PEG 400) 3100 µg/mL (≈ 8.61 mM). For the same molecule, the solubility at 72 h is 250 µg/mL (≈ 0.694 mM) (organic solvent or mixture, in Propylene glycol) and 1150 µg/mL (≈ 3.19 mM) (organic solvent or mixture, in Transcutor P).
